From patent US11559527B2 (priority 2017, dated 2023)

Experiments:
Assay type in all cases: cell-based, Human
MCF7 cells [1] = test: Mitochondrial staining with Mitotracker Deep Red (microscopy); details: 10 μM, 2- and 5-day treatment
From the text: In order to assess whether the inhibition of DRP1 was actually being translated into a reduction in mitochondrial fission, the inventors stained the mitochondria of MCF7 cells with Mitotracker Deep Red, which is a marker of mitochondrial mass. […] The original images are black background with shades of red over the cells, whereas the images in FIG. 3 have been color-inverted and generated in grey scale. Mitochondrial mass was also quantified by flow cytometry. FIGS. 4A-4C show results of mitochondrial mass quantification. In FIG. 4A, Mitotracker Deep Red mean intensity relative to vehicle intensity is shown for 2-day and 5-day treatments.
MITOCHONDRIAL STAINING: One hundred thousand MCF7 cells were seeded onto coverslips in 12-well plates. When cells were attached, mDIVI-1 and vehicle treatments were performed in triplicate. After 2 days and 5 days, mitochondria were labeled by incubating cells for 15 min at 37° C. with 25 nM of MitoTracker DeepRed (M22426, Invitrogen) diluted in PBS (D8662, Sigma). Then, cells were washed with PBS, fixed in 2% paraformaldehyde (28908, Thermo Scientific) in PBS for 30 minutes at room temperature and mounted with ProLong® Gold Antifade Mountant reagent with DAPI (P36935, Invitrogen, Inc.). […]

Notch signaling = test: Luciferase reporter assay MCF7-GFP-Rbp/Jk(luc); details: 50 μM, 2 and 5 days
From the text: Mitochondrial fusion and fission may also have an impact in signaling pathways that regulate stem cell proliferation and survival. […] A range of reporter MCF7-GFP cell lines were generated, including MCF7-GFP-GLI(luc), MCF7-GFP-Rbp/Jk(luc), MCF7-GFP-SMAD(luc) and MCF7-GFP-TCF/LEF(luc), to assess Hedgehog signaling, Notch signaling, TGFβ signaling, and Wnt signaling, respectively. […] The data is shown in the four data plots in FIG. 9.
LUCIFERASE ASSAY: The Cignal Lenti reporter assay (luc) was used to monitor the activity of several signalling pathways in MCF7-GFP cells as explained previously. Luciferase Assay System (E1501, Promega) was performed according to manufacturer's instructions. 1×10^4 MCF7 […] were seeded in black-walled 96 well plates. When cells were attached, drug treatments were added for 18, 48 hours and 5 days. After treatment, Luciferase Assay was performed according to manufacturer's instructions and light signal was acquired in the Xenogen VivoVision IVIS Lumina. Results were normalized by SRB staining of cells grown in 96-well plates in parallel.
SULFORHODAMINE B (SRB) ASSAY: SRB (S9012, Sigma) measures total biomass by staining cellular proteins. […] Absorbance was spectrophotometrically measured at 562 nm in a FluoStar Omega plate reader (BMG Labtech). […]

MCF7 cells [2] = test: Mitochondrial superoxide (MitoSOX, flow cytometry); details: both concentrations of mDIVI-1, compared to vehicle
From the text: Inhibition of the mitochondrial fission impacts on other mitochondrial processes, such as mitochondrial metabolism and general and mitochondrial oxidative stress. To confirm, MCF7 cells were stained with MitoSOX and CM-H2DCFDA, and mitochondrial superoxide and total ROS were quantified by flow cytometry. […] Whereas the increase in general ROS goes in line with the increase in mitochondrial content, the boost in the levels of mitochondrial superoxide in mDIV1-treated cells is actually bigger than the observed increased mitochondrial content.
LEVELS OF REACTIVE OXYGEN SPECIES AND MITOCHONDRIAL SUPEROXIDE: For both assays, 2×10^5 MCF7 cells were seeded in 35 mm plates. […] Reactive oxygen species (ROS) production was measured using CM-H2DCFDA (C6827, Invitrogen). Briefly, cells were incubated for 20 minutes at 37° C. with 1 μM CM-H2DCFDA diluted in PBS and then placed in complete media for 20 minutes at 37° C. in the dark, to render the dye fluorescent, according to the manufacturer. Mitochondrial superoxide was measured using MitoSOX Red Mitochondrial Superoxide Indicator (M36008, ThermoFisher Scientific). […] ROS signal and MitoSOX signal was quantified as mean fluorescent intensity of the viable cell population in a Fortessa flow cytometer (BD Bioscience). Results were analysed using FlowJo software.

MCF7 cells [3] = test: CD24/CD44 expression by FACS
Experimental: In human breast cancers, CSCs were first identified by the profile of expression of the cell surface marker CD24^−/CD44^+.
This is evident in FIGS. 10A and 10B.
The surviving fraction after 2 days and 5 days of growth was analyzed by FACS. MCF7 cells were either trypsinised or spun down and trypsinised and incubated with CD24 (IOTest CD24-PE, Beckman Coulter) and CD44 (APC mouse anti-human CD44, 559942, BD Pharmingen) for 15 minutes on ice. Cells were then rinsed twice in PBS, spun down, and resuspended with DAPI dye (D1306, Molecular probes) at 3 μM in PBS for 10 minutes. Samples were then analyzed by FACS (Fortessa, BD Bioscence). Only the live cell population, identified using the DAPI staining, was analyzed for CD24/CD44 expression. Data were analyzed using FlowJo software.

In the case of COc1cc(-n2c(S)nc3ccccc3c2=O)c(Cl)cc1Cl [mDIVI-1, 3-(2,4-Dichloro-5-methoxyphenyl)-2-sulfanyl-4(3H)-quinazolinone], the mitochondrial morphology (MCF7 cells [1]) is reported as “more interconnected mitochondria”, the “Notch/Rbp pathway luciferase activity” value (Notch signaling) is reported as “inhibition” and the “mitochondrial superoxide production (MitoSOX)” value (MCF7 cells [2]) is reported as “significantly increased”. For the same compound, the “abundance of CD24−/CD44+ subpopulation” value (MCF7 cells [3]; MCF7 grown as monolayers, 10 or 50 μM, vs vehicle) was “not reduced” and the “amount of CD24−/CD44+ cells” value (MCF7 cells [3]; MCF7 in suspension, dose-dependent) was “increased”.
